In patent publication US11912650B2, “Bakuchiol derivatives, pharmaceutically acceptable salts thereof, and preparation method and use of the same” (priority 2020, dated 2024):
In brackets after ≈: the same amount, converted by molar mass. Where a SMILES comes first, the peptide text is derived from it. The star is where a group is joined. X1 = C=C[C@](C)(/C=C/c1ccc(OCC(=O)*)cc1)CCC=C(C)C

What was measured:
S. aureus ATCC29213 [1] = test: Mouse model of bacterial keratitis (cornea infection); type: in vivo; conditions: topical four times a day for three days; 0.5% compound 60, 5% vancomycin; P<0.01
Procedure: Evaluation of in vivo efficacy. The experiment for evaluating in vivo antibacterial efficacy of animals had been approved by the Laboratory Animal Center of South China Agricultural University and was carried out according to the policy of the Ministry of Health of the People's Republic of China. Female C57BL6 mice (6-8 weeks, with an average weight of 20 g) were used as a bacterial keratitis model. In order to establish an immunosuppressive mouse model, cyclophosphamide (100 mg/kg) was injected intraperitoneally to mice three times 5 days before infection. Bacterial cells (S. aureus ATCC 29213) inoculated onto a Mueller Hinton agar (MHA) plate were suspended with PBS, and the concentration of the bacterial cells was adjusted to about 5×10^7 CFU/mL for corneal infection in mice. First, the mice were anesthetized. Then, the cornea of the left eye of the mouse was scratched with a sterile needle, and 15 μL of bacterial suspension was dropped on the injured cornea. One day after infection, the mice were randomized into three groups (5 mice per group). Three compounds (0.5% 60, 5% glucose solution and 5% vancomycin) were applied topically four times a day for consecutive three days, respectively. […] Viable bacteria were counted by an MHA plate counting method. the P value was calculated using SPSS 22.0 software and P≤0.05 was considered as being statistically significant.

S. aureus ATCC29213 [2] = test: Mouse model of bacterial peritonitis (abdominal infection); type: in vivo; conditions: 58 5 mg/kg intravenously every 4 hours; vancomycin 20 mg/kg IP; 5 mice per group
Procedure: CD-1 mice (6-8 weeks, with an average weight of 25 g) were used as an abdominal infection model. First, the mice were injected with S. aureus ATCC29213 (OD600≈1.0) intraperitoneally, and the mice were randomized into three groups (5 mice per group). After 1 hour of infection, one group was dosed with 58 (5 mg/kg) intravenously for treatment, once every 4 hours; and meanwhile, one group dosed with vancomycin (20 mg/kg, IP) was used as a positive control group, and the other group dosed with a 0.9% sodium chloride injection was used as a blank control group. After two days of treatment, the survival rate of the mice was investigated.

E. coli ATCC25922 = test: Antibacterial activity assay (broth dilution MIC); type: cell-based; conditions: Escherichia coli, 37° C., 24 h, compounds 38, 44-45, 58-61, 63-64 with 0.05% Tween 80
Procedure: (§1) Antibacterial activity assay. The antibacterial activities of all the compounds were determined according to a broth dilution method specified in Clinical and Laboratory Standards Institute (CLSI) guidelines. Bacterial cells were inoculated on a Mueller-Hinton agar (MHA) plate for overnight culture, and the concentration of the bacterial cells was adjusted to about 1×10^6 colony-forming units (CFU)/mL with phosphate buffered saline (PBS). First, a 1000 μg/mL stock solution (a final concentration of dimethyl sulfoxide (DMSO) was ≤2%) was prepared by dissolving a sample in DMSO/H2O. Then, the stock solution was diluted with Mueller-Hinton Broth (MHB) to an initial concentration of 100 μg/mL, and the sample solution (100 μL) was subjected to two-fold gradient dilution with MHB in a 96-well plate, to obtain 100 μg/mL to 0.78 μg/mL serial dilutions. Then, a bacterial suspension (100 μL) was added to each well of the 96-well plate and mixed with the test sample solution (100 μL). Among them, test systems for compounds 38, 44-45, 58-61 and 63-64 contained 0.05% of Tween 80. Finally, the 96-well plate was incubated at 37° C. for 24 hours. Absorbances at 600 nm at 0 and 24 h were measured. An minimum inhibitory concentration (MIC) value was defined as the lowest concentration where no visible bacterial growth occurred. All experiments were carried out in at least two duplicates, and biological repeatability could be achieved.

S. aureus ATCC29213 [3] = test: Antibacterial activity assay (broth dilution MIC); type: cell-based; conditions: Staphylococcus aureus, 37° C., 24 h, compounds 38, 44-45, 58-61, 63-64 with 0.05% Tween 80
Procedure: as §1

MRSA N315 = test: Antibacterial activity assay (broth dilution MIC); type: cell-based, methicillin-resistant Staphylococcus aureus; conditions: Staphylococcus aureus, 37° C., 24 h, compounds 38, 44-45, 58-61, 63-64 with 0.05% Tween 80
Procedure: as §1

MRSA NCTC10442 = test: Antibacterial activity assay (broth dilution MIC); type: cell-based, methicillin-resistant Staphylococcus aureus; conditions: Staphylococcus aureus, 37° C., 24 h, compounds 38, 44-45, 58-61, 63-64 with 0.05% Tween 80
Procedure: as §1

Gram-positive bacteria = test: Antibacterial activity against Gram-positive bacteria (MIC summary); type: cell-based; conditions: 24 h; summary of tables 1 and 2; read-out: minimum inhibitory concentration (MIC) against Gram-positive bacteria
Procedure: as §1

[4] = tested on: mouse fibroblasts NCTC clone 929; test: Toxicity to mammalian cells (CCK-8); type: cell-based; conditions: 24 h, 100 μg/mL
Procedure: Assay of toxicity to mammalian cells. The cytotoxicities of a compound to be tested to mouse fibroblasts NCTC clone 929, mouse corneal cells CM120 and human hepatocellular carcinoma cells Hep-G2 were evaluated by a CCK-8 method. Cells were inoculated to a 96-well plate according to the cell amount described in a CCK-8 kit (Beyotime, PRC) specification, and cultured at 37° C. with 5% CO2 for 24 h. Then, a specific concentration of the sample to be tested was added to each well. Inoculation was further performed at 37° C. in an incubator for 24 h. Finally, a CCK-8 solution having a final concentration of 10% was added to each well. Incubation was further performed in the incubator for 1.0 h before absorbance at 450 nm (OD450) of the solution was measured by a microplate reader. According to formula (2), the cytotoxicity of the sample to be tested could be obtained:
[formula] • Asample: absorbance of a well with cells, a CCK8 solution and a sample solution to be tested; • Ablank: absorbance of a well with a culture medium and a CCK8 solution but without cells; and • Ano sample: absorbance of a well with cells and a CCK8 solution but without a sample solution to be tested.

rabbit red blood cells = test: Hemolytic activity assay; type: cell-based; conditions: rabbit, 1 h
Procedure: Hemolytic activity assay. Rabbit red blood cells were centrifuged at 2500 rpm for 3 minutes and then washed twice with PBS. Subsequently, a 8% (v/v) cell suspension was prepared by resuspending the rabbit red blood cells with PBS. A sample was first dissolved in DMSO or PBS (a final concentration of DMSO was ≤0.5%), and then diluted with PBS to prepare two-fold gradient dilutions (400 μg/mL to 3.125 μg/mL). The rabbit red blood cell suspension ([…]) was mixed with the two-fold gradient dilutions ([…]) of the sample. Then, the mixture was added to a sterile 96-well plate, incubated at 37° C. for 1 hour, and then centrifuged at 2500 rpm for 5 minutes. Among them, test systems for compounds 38, 44-45, 58-61 and 63-64 contained 0.05% of Tween 80. The supernatant (100 μL) was transferred to a new 96-well plate. Absorbance at 576 nm was measured using a Biotek multifunctional microplate reader. The positive control group was treated with a 2% Triton X-100 solution, and the negative control group was treated with PBS or 0.5% DMSO. The hemolytic activity was calculated by the following equation: % hemolytic activity=[(Abssample−Absnegative control)/(Abspositive control−Absnegative control)]×100. All experiments were carried out in at least two duplicates, and biological repeatability could be achieved.

S. aureus ATCC29213 [5] = test: Evaluation of development tendency of drug resistance; type: cell-based; conditions: S. aureus ATCC29213, passage at 0.5×MIC
Procedure: Evaluation of development tendency of drug resistance. Initial MIC values of compound 60, norfloxacin and gatifloxacin against S. aureus ATCC29213 were obtained by the above MIC determination method. Bacterial cells in a 96-well plate with a concentration of 0.5×MIC were taken out to prepare a bacterial suspension (about 1×10^6 CFU/mL) for the next MIC value determination. After incubating the sample at 37° C. for 24 hours, the change in the MIC value of each compound was measured. This experiment was carried out consecutively for 15 days.

[6] = Pharmacokinetic characteristics in mice; type: in vivo

| SMILES | reduction of the number of bacteria in the infected mouse cornea (S. aureus ATCC29213 [1]) [log] | survival rate of mice after two days of treatment (S. aureus ATCC29213 [2]) [%] | MIC (E. coli ATCC25922) [µg/mL] | MIC (S. aureus ATCC29213 [3]) [µg/mL] | MIC (MRSA N315) [µg/mL] | MIC (MRSA NCTC10442) [µg/mL] | MIC (Gram-positive bacteria) [µg/mL] | cell survival rate, mouse fibroblasts NCTC clone 929 ([4]; mouse) | HC50 (concentration necessary to lyse 50% rabbit red blood cells) (rabbit red blood cells) | change in MIC value after 15 days of continuous passage (S. aureus ATCC29213 [5]) | cell survival rate, mouse fibroblasts NCTC clone 929 ([4]; CCK-8) | pharmacokinetic characteristics in mice [6] |
| --- | --- | --- | --- | --- | --- | --- | --- | --- | --- | --- | --- | --- |
| CN[C@H](CC(C)C)C(=O)N[C@H]1C(=O)N[C@@H](CC(N)=O)C(=O)N[C@H]2C(=O)N[C@H]3C(=O)N[C@H](C(=O)N[C@H](C(=O)O)c4cc(O)cc(O)c4-c4cc3ccc4O)[C@H](O)c3ccc(c(Cl)c3)Oc3cc2cc(c3O[C@@H]2O[C@H](CO)[C@@H](O)[C@H](O)[C@H]2O[C@H]2C[C@](C)(N)[C@H](O)[C@H](C)O2)Oc2ccc(cc2Cl)[C@H]1O [vancomycin, reference compound] | 4.16 | 100 | – | – | – | – | – | – | – | – | – | – |
| C=C[C@](C)(/C=C/c1ccc(OCC(=O)N[C@@H](CCCNC(=N)N)C(=O)N[C@@H](CCCNC(=N)N)C(=O)N[C@@H](CCCNC(=N)N)C(=O)N[C@@H](CCCNC(=N)N)C(=O)OC)cc1)CCC=C(C)C [Compound 60] (X1-RRRR-OMe) | 4.48 | – | 12.5 (≈ 13.1 µM) | 0.39 (≈ 0.409 µM) | 0.39 (≈ 0.409 µM) | 0.78 (≈ 0.818 µM) | 0.39 to 3.12 (≈ 0.409 to 3.28 µM) | 93.7±0.700 | more than 400 μg/mL | does not change significantly | – | – |
| C=C[C@](C)(/C=C/c1ccc(OCC(=O)N[C@@H](CCCNC(=N)N)C(=O)N[C@@H](CCCNC(=N)N)C(=O)N[C@@H](CCCNC(=N)N)C(N)=O)cc1)CCC=C(C)C [Compound 58] | – | 100 | 12.5 (≈ 16 µM) | 0.39 (≈ 0.499 µM) | 0.39 (≈ 0.499 µM) | 0.39 (≈ 0.499 µM) | 0.39 to 3.12 (≈ 0.499 to 4 µM) | – | – | – | 89.3±0.600 | excellent pharmacokinetic characteristics |
